In ChEMBL document CHEMBL5104100, “Synthesis and Preclinical Characterization of LY3154885, a Human Dopamine D1 Receptor Positive Allosteric Modulator with an Improved Nonclinical Drug-Drug Interaction Risk Profile” (J Med Chem, 2022):
≈ marks a conversion by molar mass, not a printed value.

How the values were obtained:
CYP3A4 [1] = biological target: T1, CYP3A4 (Homo sapiens, UniProt P08684); assay: Induction of CYP3A4 in human hepatocytes assessed as maximum efficacy relative to control
CYP3A4 [2] = biological target: T1, CYP3A4; assay: Induction of CYP3A4 in human hepatocytes; format: ADME, cell-based, Hepatocyte
Cytochrome P450 = assay: Drug metabolism in human hepatocytes assessed as fraction of Cyp mediated oxidative metabolism in presence of NADPH; format: ADME, cell-based, Hepatocyte
[3] = Solubility of compound at pH 6 by HTSA assay; format: physicochemical; conditions: buffer
D(1A) dopamine receptor = D(1A) dopamine receptor (Homo sapiens, UniProt P21728); assay: Positive allosteric modulation of human D1 receptor in HEK293 cells assessed as increase in cyclic AMP production measured after 60 mins in presence of dopamine by HTRF assay; format: cell-based
Chain of D(1A) dopamine receptor (P21728 whole entry): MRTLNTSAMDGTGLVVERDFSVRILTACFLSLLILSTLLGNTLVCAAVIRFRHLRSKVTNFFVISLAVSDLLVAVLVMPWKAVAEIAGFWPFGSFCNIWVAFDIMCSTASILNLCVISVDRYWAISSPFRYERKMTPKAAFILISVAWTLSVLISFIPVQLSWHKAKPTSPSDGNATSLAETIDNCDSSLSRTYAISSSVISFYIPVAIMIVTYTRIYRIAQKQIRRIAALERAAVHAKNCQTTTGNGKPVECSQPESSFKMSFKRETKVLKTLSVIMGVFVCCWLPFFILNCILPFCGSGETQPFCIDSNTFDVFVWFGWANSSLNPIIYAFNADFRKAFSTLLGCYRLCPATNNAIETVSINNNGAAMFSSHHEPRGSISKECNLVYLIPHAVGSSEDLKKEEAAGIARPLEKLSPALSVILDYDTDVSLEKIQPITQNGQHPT

T1 sequence (P08684 whole entry): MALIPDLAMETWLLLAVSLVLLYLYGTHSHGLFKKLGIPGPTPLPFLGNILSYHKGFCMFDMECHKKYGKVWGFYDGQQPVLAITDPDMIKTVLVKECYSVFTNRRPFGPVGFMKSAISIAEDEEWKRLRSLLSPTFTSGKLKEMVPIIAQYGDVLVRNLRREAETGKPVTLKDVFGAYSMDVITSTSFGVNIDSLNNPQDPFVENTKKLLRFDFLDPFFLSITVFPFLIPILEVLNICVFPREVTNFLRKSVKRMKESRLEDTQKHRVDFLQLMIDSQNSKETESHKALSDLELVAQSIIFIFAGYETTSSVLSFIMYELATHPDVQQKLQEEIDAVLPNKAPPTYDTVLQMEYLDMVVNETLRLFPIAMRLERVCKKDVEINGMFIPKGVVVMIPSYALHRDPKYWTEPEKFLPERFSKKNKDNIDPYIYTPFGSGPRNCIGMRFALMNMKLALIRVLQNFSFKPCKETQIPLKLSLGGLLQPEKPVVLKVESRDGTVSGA

Structure (SMILES) | Emax (CYP3A4 [1]) | EC50 (CYP3A4 [2]) | Fm (Cytochrome P450) | solubility [3] | EC50 (D(1A) dopamine receptor)
C[C@H]1c2cccc(CCC(C)(C)O)c2C[C@H](CO)N1C(=O)Cc1c(Cl)cccc1Cl | 42% | 5.5 µM | 0.6 | – | –
C[C@H]1c2cccc(-c3cn[nH]c3)c2C[C@H](CO)N1C(=O)Cc1c(Cl)cccc1Cl | – | – | – | 27 µg/mL (≈ 62.7 µM) | 0.00641 µM
CCn1cc(-c2cccc3c2C[C@H](CO)N(C(=O)Cc2c(Cl)cccc2Cl)[C@H]3C)cn1 | – | – | – | 12 µg/mL (≈ 26.2 µM) | 0.0159 µM

Other lines, results leading:

Emax (CYP3A4 [1]) | EC50 (CYP3A4 [2]) | Fm (Cytochrome P450) | solubility [3] | EC50 (D(1A) dopamine receptor) | Structure (SMILES)
– | – | – | 2 µg/mL (≈ 4.25 µM) | 0.0103 µM | C[C@H]1c2cccc(-c3cnn(C4CC4)c3)c2C[C@H](CO)N1C(=O)Cc1c(Cl)cccc1Cl
– | – | – | 35 µg/mL (≈ 72 µM) | – | C[C@H]1c2cccc(-c3cnn(C4COC4)c3)c2C[C@H](CO)N1C(=O)Cc1c(Cl)cccc1Cl
